Where a name gives a salt, the structure may show the parent alone.
biological target: T1, γ-Secretase (Homo sapiens, UniProt P49768); test: Inhibition of γ-secretase: ELISA of β-AP made by transfected H4 cells in culture; format: cell-based; details: H4 (human neuroglioma) cells expressing β-APP (Swedish variant typically), approximately 16 hours incubation, β-AP in conditioned medium by ELISA
T1 construct: transfected H4 (human neuroglioma) cells stably expressing constructs containing wild-type and mutant forms of β-APP; endogenous in cells; host or cells: H4 human neuroglioma cells, stably transfected with beta-APP (the substrate, not the enzyme)
Source text: Production and detection of β-AP made by cells in culture. The use of transfected H4 (human neuroglioma) cells stably expressing constructs containing wild-type and mutant forms of β-APP have been used to identify inhibitors of β-AP production. The Swedish variant of β-APP produces 5-7 fold more β-AP than the wild type and is typically used due to its enhanced signal. […] The capture antibody is typically a mouse monoclonal (IgG1/kβ-APPa). The antibody recognizes the carboxyl terminal epitope of β-AP. The specificity of the capture antibody ensures measurement of β-AP without interference by other secreted β-APP fragments that share amino acid sequence (β-AP1-16) with β-AP. The detecting antibody is typically an affinity purified rabbit polyclonal antibody, specific for the amino terminus of β-AP. In the cell-based assay conditioned medium from H4 cells is tested by ELISA for the quantity of β-AP present. The cell-based assay can be used to identify compounds that inhibit β-AP production. The assay should detect agents that inhibit cleavage at the β-secretase and/or the γ-secretase cleavage site as well as detecting any agent that interferes with the production and/or release of β-AP.
A typical ELISA-based assay requires plating of the transfected cells at a density sufficient for the rapid detection of the secreted β-AP (experimentally predetermined for a particular stable cell population) in a 96-well format. Cells are plated for at least six hours prior to the introduction of the test compound at which time the growth medium is replaced by fresh medium containing the agent to be tested. Test agents may typically consist of synthetic compounds, secondary metabolites from bacterial or fungal fermentation extracts, or extracts from plant or marine samples. All synthetic agents are initially screened at doses ranging from 10-100 μM or in the case of extracts at sufficient dilution to minimize cytotoxicity. Incubation of the cells with the test agent will continue for approximately 16 hours at which time equal aliquots of media from each sample well is removed and placed into a previously prepared ELISA plate for β-AP quantitation. The ELISA is carried out in a manner described by others (Haass, et al., 1992; Hawlow and Lane, 1988) and the β-AP signal quantitated. Results are obtained by analysis of the ELISA plate following development and comparison to the mock treated cell populations and samples in which known amounts of β-AP were added to construct a standard concentration curve. […] If a compound is found to be active, then a dose response experiment is performed to determine the lowest dose of compound necessary to elicit the inhibition of the production of β-AP.

Row | Compound | Activity Rating (Inhibition of γ-Secretase)
1 | CC(C)CCCN[C@@H](CC1CCCCC1)[C@@H](O)C[C@H](C(=O)N[C@H](C)c1ccccc1)C(C)C (relative stereo) [Example 28, [αS-(αR*,γR*,δR*,N-(1S*))]γ-hydroxy-α-(1-methylethyl)-δ-[(4-methylpentyl)amino]-N-(1-phenylethyl)cyclohexanehexanamide hydrochloride] | +++ (+++ < = 10)
2 | CCCCNC(=O)[C@@H](C[C@H](O)[C@H](CC1CCCCC1)NCCC(C)C)C(C)C (relative stereo) [Example 35, [αS-(αR*,γR*,δR*)]N-Butyl-γ-hydroxy-δ-[(3-methylbutyl)amino]-α-(1-methylethyl)cyclohexanehexanamide hydrochloride] | +++ (+++ < = 10)
3 | CCCCNC(=O)[C@@H](C[C@H](O)[C@H](CC1CCCCC1)NCCCC1CC1)C(C)C (relative stereo) [Example 46, [αS(αR*,γR*,δR*)]-N-Butyl-δ-[(3-cyclopropyl)propyl]amino-γ-hydroxy-α-(1-methylethyl)cyclohexanehexanamide hydrochloride] | +++ (+++ < = 10)
4 | CCCCNC(=O)[C@H](CC1CCCCC1)C[C@H](O)[C@H](CC1CCCCC1)NCCCC(C)C (relative stereo) [Example 26, [αS-(αR*,γR*,δR*)]-N-Butyl-α-(cyclohexylmethyl)-γ-hydroxy-δ-[(4-methylpentyl)amino]cyclohexanehexanamide, hydrochloride] | +++ (+++ < = 10)
5 | CC(C)CNC(=O)[C@@H](C[C@H](O)[C@H](CC1CCCCC1)NC1CCC(C)C1)C(C)C (relative stereo) [Example 43, [αS(αR*,γR*,δR*)]-γ-Hydroxy-δ-[(3-methylcyclopentyl)amino]-α-(1-methylethyl)-N-(2-methylpropyl)cyclohexanehexanamide] | +++ (+++ < = 10)
6 | CC(C)CCCN[C@@H](CC1CCCCC1)[C@@H](O)C[C@H](C(=O)NCC(C)(C)C)C(C)C (relative stereo) [Example 31, [αS-(αR*,γR*,δR*)]N-(2,2-dimethylpropyl)-γ-hydroxy-α-(1-methylethyl)-δ-[(4-methylpentyl)amino]cyclohexanehexanamide hydrochloride] | +++ (+++ < = 10)
7 | CCCCNC(=O)[C@@H](C[C@H](O)[C@H](CC1CCCCC1)NCCCCC(C)C)C(C)C (relative stereo) [Example 34, [αS-(αR*,γR*,δR*)]N-Butyl-γ-hydroxy-α-(1-methylethyl)-δ-[(5-methylhexyl)amino]cyclohexanehexanamide hydrochloride] | +++ (+++ < = 10)
8 | CCCCNC(=O)[C@H](CC(C)C)C[C@H](O)[C@H](CC1CCCCC1)NCCCC(C)C (relative stereo) [Example 22, [αS-(αR*,γR*,δR*)]N-Butyl-γ-hydroxy-δ-[(4-methylpentyl)amino]-α-(2-methylpropyl)cyclohexanehexanamide hydrochloride] | +++ (+++ < = 10)
9 | CCCCNC(=O)[C@@H](C[C@H](O)[C@H](CC1CCCCC1)NCc1cccc(C)c1)C(C)C (relative stereo) [Example 36, [αS-(αR*,γR*,δR*)]N-Butyl-γ-hydroxy-α-(1-methylethyl)-δ-[[(3-methylphenyl)methyl]amino]cyclohexanehexanamidehydrochloride] | +++ (+++ < = 10)
10 | CC(C)CCCN[C@@H](CC1CCCCC1)[C@@H](O)C[C@H](C(=O)NCC(C)C)C(C)C (relative stereo) [Example 30, [αS-(αR*,γR*,δR*)]γ-hydroxy-α-(1-methylethyl)-δ-[(4-methylpentyl)amino]-N-(2-methylpropyl)cyclohexanehexanamide hydrochloride] | +++ (+++ < = 10)
11 | CC(C)=CCCN[C@@H](CC1CCCCC1)[C@@H](O)C[C@H](C(=O)NCC(C)C)C(C)C (relative stereo) [Example 49, [αS(αR*,γR*,δR*)]-γ-hydroxy-α-(1-methylethyl)-δ-[(4-methyl-3-pentenyl)amino]-N -(2-methylpropyl)cyclohexanehexanamide] | +++ (+++ < = 10)
12 | C=C(C)C[C@H](C[C@H](O)[C@H](CC1CCCCC1)NCCCC(C)C)C(=O)NCCCC (relative stereo) [Example 21, [αS-(αR*,γR*,δR*)]N-Butyl-γ-hydroxy-α-(2-methyl-2-propenyl)-δ-[(4-methylpentyl)amino]cyclohexanehexanamide hydrochloride] | +++ (+++ < = 10)
13 | CCCCNC(=O)[C@@H](C[C@H](O)[C@H](CC1CCCCC1)NCCOC(C)C)C(C)C (relative stereo) [Example 39, [αS-(αR*,γR*,δR*)]N-Butyl-γ-hydroxy-δ-[2-(1-methylethoxy)ethyl]amino]-α-(1-methylethyl)cyclohexanehexanamidehydrochloride] | + (+ > 25 & < = 50 μM)

Continued, values first:

Row | Activity Rating (Inhibition of γ-Secretase) | Compound
14 | +++ (+++ < = 10) | CCCCNC(=O)[C@H](Cc1ccccc1)C[C@H](O)[C@H](CC1CCCCC1)NCCCC(C)C (relative stereo) [Example 25, [αS-(αR*,γR*,δR*)]N-Butyl-γ-hydroxy-δ-[(4-methylpentyl)amino]-α-(phenylmethyl)cyclohexanehexanamide hydrochloride]
15 | +++ (+++ < = 10) | CC(C)CNC(=O)[C@@H](C[C@H](O)[C@H](CC1CCCCC1)NC1CCCC(C)C1)C(C)C (relative stereo) [Example 42, [αS(αR*,γR*,δR*)]-γ-Hydroxy-δ-[(3-methylcyclohexyl)amino]-α-(1-methylethyl)-N-(2-methylpropyl)cyclohexanehexanamide]
16 | +++ (+++ < = 10) | CCCCNC(=O)[C@@H](C[C@H](O)[C@H](CC1CCCCC1)NCCC(C)CC)C(C)C (relative stereo) [Example 33, [αS-(αR*,γR*,δR*)]N-Butyl-γ-hydroxy-α-(1-methylethyl)-δ-[(3-methylpentyl)amino]cyclohexanehexanamide hydrochloride]
17 | + (+ > 25 & < = 50 μM) | CCCCNC(=O)[C@@H](C[C@H](O)[C@H](CC1CCCCC1)NCc1ccc2ccccc2c1)C(C)C (relative stereo) [Example 38, [αS-(αR*,γR*,δR*)]N-Butyl-γ-hydroxy-α-(1-methylethyl)-δ-[[(2-naphthyl)methyl]amino]cyclohexanehexanamide hydrochloride]
18 | +++ (+++ < = 10) | CCCCNC(=O)[C@@H](C[C@H](O)[C@H](CC1CCCCC1)NCCC1CCCCC1)C(C)C (relative stereo) [Example 48, [αS(αR*,γR*,δR*)]-N-Butyl-δ-[(3-cyclohexyl)ethyl]amino-γ-hydroxy-α-(1-methylethyl)cyclohexanehexanamide hydrochloride]
19 | +++ (+++ < = 10) | CC(C)CCCN[C@@H](CC1CCCCC1)[C@@H](O)C[C@H](C(=O)NCCc1ccccc1)C(C)C (relative stereo) [Example 29, [αS-(αR*,γR*,δR*)]γ-hydroxy-α-(1-methylethyl)-δ-[(4-methylpentyl)amino]-N-(2-phenylethyl)cyclohexanehexanamide hydrochloride]
20 | +++ (+++ < = 10) | CCCCCN[C@@H](CC1CCCCC1)[C@@H](O)C[C@H](C(=O)NCCCC)C(C)C (relative stereo) [Example 45, [αS(αR*,γR*,δR*)]-N-Butyl-γ-hydroxy-α-(1-methylethyl)-δ-(pentylamino)cyclohexanehexanamide hydrochloride]
21 | +++ (+++ < = 10) | CCCCNC(=O)[C@@H](C[C@H](O)[C@H](CC1CCCCC1)NCCCC1CCCC1)C(C)C (relative stereo) [Example 47, [αS(αR*,γR*,δR*)]-N-Butyl-δ-[(3-cyclopentyl)propyl]amino-γ-hydroxy-α-(1-methylethyl)cyclohexanehexanamide hydrochloride]
22 | +++ (+++ < = 10) | CCCCNC(=O)[C@@H](C[C@H](O)[C@H](CC1CCCCC1)NC1CCC(C(C)C)CC1)C(C)C (relative stereo) [Example 44, [αS(αR*,γR*,δR*)]-N-butyl-γ-hydroxy-α-(1-methylethyl)-δ-[[4-(1-methylethyl)cyclohexyl]amino]cyclohexanehexanamide hydrochloride]

Reference: patent US5703129A, “5-amino-6-cyclohexyl-4-hydroxy-hexanamide derivatives as inhibitors of β-amyloid protein production” (Bristol-Myers Squibb Company, priority 1996, dated 1997)
